{"source": "patent US20240358705A1", "about": "“COMPOSITIONS AND METHODS FOR TREATMENT OF CANCER” (Board of Supervisors of Louisiana State University and …, priority 2021, published 2024)", "key": {"BM-MDSCs": {"tested_on": "BM-MDSCs", "assay": "Arginase-I and iNOS immunoblot in BM-MDSCs", "format": "cell-based, mouse", "conditions": "for arginase-I levels, reduction compared to DMSO / iNOS production, reduction compared to DMSO: 72 hours", "description": "Bone marrow cells were isolated by flushing the tibia and femurs of wild-type C57BL/6N mice. […] To generate BM-MDSCs, 3×10^6 cells were plated in a 6-well dish and incubated at 37° C., 5% CO2 for 96 hours. For treatment, drugs were administered at either 3 μM or 10 μM concentrations and added to the BM-MDSC cell culture well 24 hours after plating.\n(§1) Protein concentration was quantified using a BCA protein assay kit (Thermo #A53225). […] of protein diluted with 1×LDS sample buffer (Life Technologies #B0008) and 1×sample reducing agent (Life Technologies #B0009), were denatured at 95° C. for 5 minutes. Denatured T cell protein was resolved using a 10% Bolt Bis-Tris plus protein gel (Thermo #NW00102BOX) and denatured BM-MDSC protein was resolved using an 8% Bolt Bis-Tris plus protein gel (Thermo #NW00082BOX). Gels were transferred to a PVDF membrane (Invitrogen #IB401002) using a seven-minute P3 program on an Invitrogen iBlot dry transfer system. Membranes were then blocked for one hour using 5% nonfat dry milk in TBS-T, washed three times with TBS-T and probed with primary antibody diluted with 5% BSA in TBS-T overnight at 4° C. with gentle rocking. Primary antibody was removed, and membranes were washed three times with TBS-T followed by secondary antibody diluted in TBS-T at room temperature for one hour with gentle rocking. […] Secondary antibodies used were anti-mouse-HRP (Kindle Biosciences #R1005) and anti-rabbit-HRP (Kindle Biosciences #R1006). Analysis was conducted using ImageJ (NIH Bethesda, MD) and normalized to the housekeeping protein β-actin."}, "CD8 T cells [1]": {"tested_on": "CD8 T cells", "assay": "CFSE labeling and T cell proliferation", "format": "cell-based, mouse", "conditions": "72 hours", "description": "Lymph nodes and spleen were isolated from wild-type C57BL/6N mice. Tissue was mechanically dissociated with the back of a syringe plunger and passed through a […] filter. […] Treated cells were incubated at 37° C., 5% CO2 for the designed study duration. Isolated CD3 T cells were labeled with 1 μM CFDA SE (Thermo #V12883) for 15 minutes at 37° C. protected from light. […] Cells were pelleted, resuspended and plated in an antibody coated well with the indicated drug concentrations at time zero. Activated T cells were incubated at 37° C., 5% CO2 for 72 hours. After study duration, T cells were stained with anti-CD4, anti-CD8, anti-CD3 following the immune profiling by flow cytometry method and proliferation was measured by CFSE dilution."}, "[2]": {"conditions": "three separate models of NASH; cited from earlier work"}, "CD8 T cells [3]": {"tested_on": "CD8 T cells", "assay": "CD8 T cell differentiation by flow cytometry", "format": "cell-based, mouse", "conditions": "72 hours", "description": "Lymph nodes and spleen were isolated from wild-type C57BL/6N mice. Tissue was mechanically dissociated with the back of a syringe plunger and passed through a […] filter. […] Treated cells were incubated at 37° C., 5% CO2 for the designed study duration. […] After staining, cells were pelleted, resuspended and run by a BD FACSymphony A3 flow cytometer."}, "CD3 T cells [4]": {"tested_on": "CD3 T cells", "assay": "Granzyme B and perforin immunoblot", "format": "cell-based, mouse", "conditions": "for granzyme B protein production, increase compared to DMSO / granzyme B, Log2 fold change compared to DMSO / perforin production, increase compared to DMSO / perforin, Log2 fold change compared to DMSO: 72 hours", "description": "(§2) Lymph nodes and spleen were isolated from wild-type C57BL/6N mice. Tissue was mechanically dissociated with the back of a syringe plunger and passed through a 70 M filter. […] Treated cells were incubated at 37° C., 5% CO2 for the designed study duration."}, "CD3 T cells [5]": {"tested_on": "CD3 T cells", "conditions": "activated CD3 T cells, 3 μM or 10 μM, 72 hours", "description": "as §2\nas §1, with “Analysis was conducted using ImageJ (NIH Bethesda, MD) and normalized to the housekeeping protein β-actin.” left out"}, "CD4 T cells": {"tested_on": "CD4 T cells", "assay": "Annexin/PI apoptosis staining, CD4", "format": "cell-based, mouse", "conditions": "3 μM or 10 μM, 72 hours, vs DMSO", "description": "as §2\nTreated CD3 T cells were prepared following the in vitro T cell activation method and incubated for 72 hours at 37° C., 5% CO2."}, "CD8 T cells [6]": {"tested_on": "CD8 T cells", "assay": "Single-cell RNA sequencing", "format": "cell-based, mouse", "conditions": "10 μM, 16 hours", "description": "Treated CD8 T cells were prepared following the in vitro T cell activation method and incubated for 16 hours at 37° C., […]. Treated T cells were mixed with treated BM-MDSCs at a […] (T cell): 30% (BM-MDSC) ratio moments before analysis. 10,000 cells with greater than 90% viability were used in the analysis at a concentration of 1,000 cells/μl. Barcoded cDNA libraries were prepared using a chromium next GEM single-cell 3′ reagent kit v3.1 (10× Genomics #1000127) following the manufacturer's instructions. […] (Agilent, Santa Clara, CA) DNA was subsequently quantified by fluorometry using a Qubit dsDNA high sensitivity assay kit (Invitrogen #Q32854). DNA libraries were pooled in equimolar ratios and sequenced using an Illumina NextSeq 500 (Illumina, San Diego, CA) following 10× Genomics' instructions. […] Doublets were subsequently removed using DoubletFinder (https://github.com/chris-mcginnis-ucsf/DoubletFinder). An unsupervised clustering and plotting using UMAPs was completed on the remaining cells. CD8 T cells were identified by first conducting CD3 followed by CD8 refinement and reclustering. To characterize the CD8 subsets, the top 50 differentially expressed genes between each subcluster were compared against publicly available datasets, and known genes associated with activation, exhaustion, and memory T cell states. To determine changes in metabolism and cytotoxicity, a curated list of genes associated with glucose, fatty acid, lipid metabolism, and cytotoxicity were generated. Average gene expression by treatment group was determined for each gene and visualized by heatmap."}, "OT-I CD8 T cells": {"tested_on": "OT-I CD8 T cells", "assay": "In vitro cytotoxicity assay (E.G7-OVA target cells)", "format": "cell-based, mouse", "conditions": "CD8 T cells treated 72 hours (10 μM printed for GLPG1205)", "description": "Lymph nodes and spleen were isolated from wild-type C57BL/6N mice. Tissue was mechanically dissociated with the back of a syringe plunger and passed through a […]. […] Treated cells were incubated at 37° C., 5% CO2 for the designed study duration. Treated OT-I CD8 T cells were prepared following the in vitro T cell activation method. Non-target EL4 cells (CFSE low—0.2 μM) and target E.G7-OVA cells (CFSE high—[…]) were prepared following the CFSE labeling protocol. Cells were subsequently washed, pelleted, resuspended at 1×10^6 cells/ml, and mixed at 1:1 ratio. 100 μl of the mixed cells were plated into a 96-well flat bottom plate."}}, "data": [{"smiles": "O=c1nc(OC[C@@H]2COCCO2)cc2n1CCc1cc(C#CC3CC3)ccc1-2", "note": "[GLPG1205, 9-Cyclopropylethynyl-2-((S)-1-[1,4]dioxan-2-ylmethoxy)-6,7-dihydropyrimido[6,1-a]isoquinolin-4-one]", "values": [{"measurement": "arginase-I levels, reduction compared to DMSO", "setting": "BM-MDSCs; 3 μM", "result": 1.79, "unit": "times"}, {"measurement": "iNOS production, reduction compared to DMSO", "setting": "BM-MDSCs; 3 μM", "result": 1.5, "unit": "times"}, {"measurement": "arginase-I levels, reduction compared to DMSO", "setting": "BM-MDSCs; 10 μM", "result": 2.75, "unit": "times"}, {"measurement": "iNOS production, reduction compared to DMSO", "setting": "BM-MDSCs; 10 μM", "result": 1.35, "unit": "times"}, {"measurement": "expression of Arginase 1 and iNOS (Western blot)", "setting": "BM-MDSCs; bone marrow derived murine MDSC, descending concentrations (FIG. 4)", "result": "decreases the expression of Arginase 1 protein"}, {"measurement": "CD8 T cell proliferation, Log2 fold change compared DMSO control", "setting": "CD8 T cells [1]; 3 μM", "result": 0.48, "unit": "Log2 fold change"}, {"measurement": "CD8 T cell proliferation, increase vs DMSO", "setting": "CD8 T cells [1]; 3 μM", "result": 39.3, "unit": "%"}, {"measurement": "CD8 T cell proliferation, Log2 fold change compared DMSO control", "setting": "CD8 T cells [1]; 10 μM", "result": 0.78, "unit": "Log2 fold change"}, {"measurement": "CD8 T cell proliferation, increase vs DMSO", "setting": "CD8 T cells [1]; 10 μM", "result": 71.7, "unit": "%"}, {"measurement": "macrophage accumulation", "setting": "[2]", "result": "significant decrease in macrophage accumulation"}, {"measurement": "effector/memory CD8 compartment (CD62L−, CD44+), average increase compared to DMSO control", "setting": "CD8 T cells [3]; 3 μM", "result": 23.57, "unit": "%"}, {"measurement": "naïve CD8 T cell compartment (CD62L+, CD44−), average reduction compared to DMSO control", "setting": "CD8 T cells [3]; 3 μM", "result": 32.54, "unit": "%"}, {"measurement": "effector/memory CD8 compartment (CD62L−, CD44+), average increase compared to DMSO control", "setting": "CD8 T cells [3]; 10 μM", "result": 37.93, "unit": "%"}, {"measurement": "naïve CD8 T cell compartment (CD62L+, CD44−), average reduction compared to DMSO control", "setting": "CD8 T cells [3]; 10 μM", "result": 74.69, "unit": "%"}, {"measurement": "granzyme B protein production, increase compared to DMSO", "setting": "CD3 T cells [4]; 3 μM", "result": 3.57, "unit": "times"}, {"measurement": "granzyme B, Log2 fold change compared to DMSO", "setting": "CD3 T cells [4]; 3 μM", "result": 1.84, "unit": "Log2 fold change"}, {"measurement": "perforin production, increase compared to DMSO", "setting": "CD3 T cells [4]; 3 μM", "result": 3.09, "unit": "times"}, {"measurement": "perforin, Log2 fold change compared to DMSO", "setting": "CD3 T cells [4]; 3 μM", "result": 1.62, "unit": "Log2 fold change"}, {"measurement": "granzyme B protein production, increase compared to DMSO", "setting": "CD3 T cells [4]; 10 μM", "result": 4.04, "unit": "times"}, {"measurement": "granzyme B, Log2 fold change compared to DMSO", "setting": "CD3 T cells [4]; 10 μM", "result": 2.01, "unit": "Log2 fold change"}, {"measurement": "perforin production, increase compared to DMSO", "setting": "CD3 T cells [4]; 10 μM", "result": 3.86, "unit": "times"}, {"measurement": "perforin, Log2 fold change compared to DMSO", "setting": "CD3 T cells [4]; 10 μM", "result": 1.95, "unit": "Log2 fold change"}, {"measurement": "expression of Granzyme B and Perforin (western blot)", "setting": "CD3 T cells [4]; activated T cells, high doses (FIG. 5)", "result": "dramatically increases the expression of Granzyme B and perforin"}, {"measurement": "GPR84 expression", "setting": "CD3 T cells [5]", "result": "did not significantly affect GPR84 expression"}, {"measurement": "CD4 apoptosis (Annexin/PI)", "setting": "CD4 T cells", "result": "did not elicit any significant changes"}, {"measurement": "average expression of genes of glucose, fatty acid, lipid metabolism and cytotoxicity (heatmap)", "setting": "CD8 T cells [6]", "result": "dramatic increase in gene expression"}, {"measurement": "total number of CD8 T cells compared to DMSO control", "setting": "CD8 T cells [6]", "result": "increase in total CD8"}, {"measurement": "fraction of CD8 T cells identified as naïve", "setting": "CD8 T cells [6]; DMSO 26.6%", "result": 16.2, "unit": "%"}, {"measurement": "fraction of CD8 T cells identified as early-effector", "setting": "CD8 T cells [6]; DMSO 27.8%", "result": 41.3, "unit": "%"}, {"measurement": "fraction of CD8 T cells identified as effector", "setting": "CD8 T cells [6]; DMSO 45.6%", "result": 42.5, "unit": "%"}, {"measurement": "killing capacity compared to DMSO control (percent specific lysis)", "setting": "OT-I CD8 T cells", "result": "significantly improved killing capacity"}]}]}
